The source of these data is paper PMC5768801, “The PII signaling protein from red algae represents an evolutionary link between cyanobacterial and Chloroplastida PII proteins” (Scientific Reports, 2018).

This assay has as its system PipX. Kind of assay: Pull-down analysis of PipX binding to PII proteins. Further details: species or system Synechocystis sp. PCC 6803. Particulars: 10 µM proteins, 1 mM ADP, Strep-Tactin column, Tricine-SDS-PAGE. The text has this:
In cyanobacteria, PipX is the second known receptor of PII signaling. We questioned whether red algal PII proteins have lost or retained the ability to bind to PipX. To test this possibility, we first analyzed complex formation using pull-down experiments (Supplementary Fig. S3A and B). The PII protein from Synechocystis sp. PCC 6803 (ScPII) was mixed with PipX in the presence of ADP and then the Strep-tagged PII was immobilized on the Strep-Tactin II column (Supplementary Fig. S3A). After extensive washes, the proteins were eluted with desthiobiotin and analyzed by Tricine-SDS-PAGE. Both proteins were detected in the elution. Thus, confirming previous studies[16]–[18], cyanobacterial PII was bound to PipX. When PpPII in the presence of PipX was immobilized on the column, no PipX signal was detected in the elution (Supplementary Fig. S3B).
For complex formation, the binding reactions were done in 300 μl of buffer (100 mM Tris HCl, pH 8.0, 150 mM NaCl, 1 mM EDTA) by adding 10 µM of purified proteins: His6-ScPipX and Strep-tag ScPII or Strep-tag PpPII. […] The eluted fractions were analyzed by Tricine-SDS PAGE[51] and stained with SimplyBlue™ SafeStain (Invitrogen).
Figure S3. […] Complex formation between PipX and ScPII (A) or PpPII (B) was assessed by pull-down. […] (C) Complex formation between PipX and PII proteins was assessed by SPR. […]

Turning to “ScPII: PII protein from Synechocystis sp. PCC 6803, recombinant with C-terminal Strep-tag II”, the “complex formation with PipX (pull-down)” value is reported as “bound to PipX”.
